Data on ten compounds can be found in US9346797B1, “2-amino 6-(difluoromethyl)-5,5-difluoro-6-phenyl-3,4,5,6-tetrahydropyridines as BACE1 inhibitors” (H. Lundbeck A/S, priority 2014, dated 2016).

The structures appear in SMILES notation.

One data set concerns P-gp (MDR1). As to the kind of experiment: MDCK-MDR1 assay (permeability/efflux). It counts as in vitro ADME. To be noted: dog, Papp BA/Papp AB, 60-minute incubation, Pgp substrate when ≧2. As to the method: The permeability of the test compounds was assessed in MDCK-MDR1 cells that were cultured to confluency (4-6 days) in a 96 transwell plate. Test compounds were diluted with the transport buffer (HBSS+1% BSA) to a concentration of 0.5 μM and applied to the apical or basolateral side of the cell monolayer. Permeation of the test compounds from A to B direction or B to A direction was determined in triplicate over a 60-minute incubation time at 37° C. and 5% CO2 with a relative humidity of 95%. Test compounds were quantified by LC-MS/MS analysis based on the peaks area ratios of analyte/IS in both the receiver and donor wells of the transwell plate.
The apparent permeability coefficient Papp (cm/s) was calculated using the equation: Papp=(dCr/dt)×Vr/(A×C0)
Where dCr/dt is the cumulative concentration of compound in the receiver chamber as a function of time (μM/s); Vr is the solution volume in the receiver chamber (0.05 mL on the apical side; 0.25 mL on the basolateral side); A is the surface area for the transport, i.e. 0.0804 cm^2 for the area of the monolayer; CO is the initial concentration in the donor chamber (μM).
Compounds are classified Pgp substrates when efflux ratio (Papp BA/Papp AB) is ≧2.

A further data set addresses human BACE1 (Homo sapiens (Human), UniProt P56817). The experiment in a line: BACE1 binding assay (SPA-based radioligand binding). The following applies: pH 4.5, Ki calculated from IC50. As to the method: The binding assay was performed as SPA-based assay using a biotinylated form of human BACE1 recombinantly expressed and subsequently purified from Freestyle HEK293 cells. The binding assay was run in a 50 mM sodium acetate buffer, pH 4.5 containing 50 mM NaCl and 0.03% Tween-20 in white clear bottom 384 plates (Corning #3653). 10 nM (final concentration) radioligand ([^3H]—N-((1S,2R)-1-benzyl-3-cyclopropylamino-2-hydroxy-propyl)-5-(methanesulfonyl-methyl-amino)-N—((R)-1-phenyl-ethyl)-isophthalamide) (TRQ11569 purchased from GE Healthcare) was mixed with test compound at a given concentration, 6 nM (final concentration) human BACE1 and 25 μg Streptavidin coated PVT core SPA beads (RPNQ0007, GE Healthcare Life Sciences) in a total volume of 40 μl. Several concentrations of each test compound were tested in the assay for IC50 determination. The plates were incubated for one hour at room temperature and counted in a Wallac Trilux counter. Total and non-specific binding were determined using buffer and 1 μM (final concentration) of the high affinity BACE1 reference inhibitor (S)-6-[3-chloro-5-(5-prop-1-ynyl-pyridin-3-yl)-thiophen-2-yl]-2-imino-3,6-dimethyl-tetrahydro-pyrimidin-4-one, respectively. For each test compound, a IC50 value (the concentration mediating 50% inhibition of the specific binding of the radioligand) was determined from concentration-response curve and used to calculate the Ki from the equation Ki=IC50/(1+L/Kd), where L and Kd are the final concentration of the radioligand used in the assay and the dissociation constant of the radioligand, respectively. The Kd of the radioligand was determined from saturation binding experiments.

human BACE1, sequence (P56817 46-501): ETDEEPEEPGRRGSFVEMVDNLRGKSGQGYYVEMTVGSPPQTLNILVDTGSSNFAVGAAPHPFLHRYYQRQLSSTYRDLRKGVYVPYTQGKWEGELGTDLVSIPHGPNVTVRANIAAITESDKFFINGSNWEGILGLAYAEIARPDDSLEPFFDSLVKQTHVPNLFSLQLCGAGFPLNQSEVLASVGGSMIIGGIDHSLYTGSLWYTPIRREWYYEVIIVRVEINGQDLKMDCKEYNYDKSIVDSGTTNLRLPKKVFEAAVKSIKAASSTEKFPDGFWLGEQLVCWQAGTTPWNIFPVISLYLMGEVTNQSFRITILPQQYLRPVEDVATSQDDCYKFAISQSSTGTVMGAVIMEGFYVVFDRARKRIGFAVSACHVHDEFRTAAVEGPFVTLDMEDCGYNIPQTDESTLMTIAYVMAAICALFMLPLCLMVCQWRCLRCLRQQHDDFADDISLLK

`NC1=N[C@@](c2cc(NC(=O)c3ccc(Cl)cn3)ccc2F)(C(F)F)C(F)(F)CC1` [Compound 1, (S)—N-(3-(6-amino-2-(difluoromethyl)-3,3-difluoro-2,3,4,5-tetrahydropyridin-2-yl)-4-fluorophenyl)-5-chloropicolinamide]: in the data set on P-gp (MDR1), the efflux ratio at 60 min, 0.5 μM came out at 1.16. The Ki at human BACE1 was 0.018 µM.
As for `NC1=N[C@@](c2cc(NC(=O)c3ccc(F)cn3)ccc2F)(C(F)F)C(F)(F)CC1` [Compound 2, (S)—N-(3-(6-amino-2-(difluoromethyl)-3,3-difluoro-2,3,4,5-tetrahydropyridin-2-yl)-4-fluorophenyl)-5-fluoropicolinamide], the efflux ratio at 60 min, 0.5 μM in the data set on P-gp (MDR1) was determined as 1.75. Moreover, the Ki at human BACE1 was 0.023 µM.
On to `Cc1nc(C(=O)Nc2ccc(F)c([C@@]3(C(F)F)N=C(N)CCC3(F)F)c2)co1` [Compound 4, (S)—N-(3-(6-amino-2-(difluoromethyl)-3,3-difluoro-2,3,4,5-tetrahydropyridin-2-yl)-4-fluorophenyl)-2-methyloxazole-4-carboxamide], for which the efflux ratio at 60 min, 0.5 μM with P-gp (MDR1) amounted to 4.01. Moreover, the Ki on human BACE1 was 0.02 µM.
Consider `NC1=N[C@@](c2cc(NC(=O)c3cnc(C(F)F)cn3)ccc2F)(C(F)F)C(F)(F)CC1` [Compound 6, (S)—N-(3-(6-amino-2-(difluoromethyl)-3,3-difluoro-2,3,4,5-tetrahydropyridin-2-yl)-4-fluorophenyl)-5-(difluoromethyl)pyrazine-2-carboxamide], for which, in the data set with P-gp (MDR1), the efflux ratio at 60 min, 0.5 μM stood at 1.36. The inhibitory constant (Ki) at human BACE1 was 0.02 µM.
In the same order, the values of `N#Cc1ccc(C(=O)Nc2ccc(F)c([C@@]3(C(F)F)N=C(N)CCC3(F)F)c2)nc1` [Compound 7, (S)—N-(3-(6-amino-2-(difluoromethyl)-3,3-difluoro-2,3,4,5-tetrahydropyridin-2-yl)-4-fluorophenyl)-5-cyanopicolinamide] are 2.43 and 0.0074 µM.
Consider `Cc1csc(C(=O)Nc2ccc(F)c([C@@]3(C(F)F)N=C(N)CCC3(F)F)c2)n1` [Compound 8, (S)—N-(3-(6-amino-2-(difluoromethyl)-3,3-difluoro-2,3,4,5-tetrahydropyridin-2-yl)-4-fluoro-phenyl)-4-methylthiazole-2-carboxamide], for which the efflux ratio at 60 min, 0.5 μM in the data set on P-gp (MDR1) was found to be 0.92. Further, on human BACE1, the Ki is 0.071 µM.
Consider `COc1cnc(C(=O)Nc2ccc(F)c([C@@]3(C(F)F)N=C(N)CCC3(F)F)c2)nc1` [Compound 9, (S)—N-(3-(6-amino-2-(difluoromethyl)-3,3-difluoro-2,3,4,5-tetrahydropyridin-2-yl)-4-fluorophenyl)-5-methoxypyrimidine-2-carboxamide], for which the efflux ratio at 60 min, 0.5 μM in the data set with P-gp (MDR1) is 11. Further, at human BACE1, the inhibition constant (Ki) is 0.0069 µM.
As for `COc1cnc(C(=O)Nc2ccc(F)c([C@@]3(C(F)F)N=C(N)CCC3(F)F)c2)c(C)n1` [Compound 10, (S)—N-(3-(6-amino-2-(difluoromethyl)-3,3-difluoro-2,3,4,5-tetrahydropyridin-2-yl)-4-fluorophenyl)-5-methoxy-3-methylpyrazine-2-carboxamide], in the data set on P-gp (MDR1), the efflux ratio at 60 min, 0.5 μM was found to be 0.98. For the same compound, the Ki at human BACE1 is 0.016 µM.
For `Cc1cc(C#N)cnc1C(=O)Nc1ccc(F)c([C@@]2(C(F)F)N=C(N)CCC2(F)F)c1` [Compound 11, (S)—N-(3-(6-amino-2-(difluoromethyl)-3,3-difluoro-2,3,4,5-tetrahydropyridin-2-yl)-4-fluorophenyl)-5-cyano-3-methylpicolinamide], the efflux ratio at 60 min, 0.5 μM in the data set with P-gp (MDR1) stood at 2.68. Moreover, the Ki at human BACE1 is 0.0078 µM.
As for `NC1=N[C@@](c2cc(NC(=O)c3ccc(Br)cn3)ccc2F)(C(F)F)C(F)(F)CC1` [Compound 12, (S)—N-(3-(6-amino-2-(difluoromethyl)-3,3-difluoro-2,3,4,5-tetrahydropyridin-2-yl)-4-fluorophenyl)-5-bromopicolinamide], the efflux ratio at 60 min, 0.5 μM in the data set with P-gp (MDR1) is 1.31. For the same compound, the Ki at human BACE1 was 0.0061 µM.

One may read the efflux ratio as a quotient of directional permeabilities that is used to spot active efflux. For orientation: Ki means the dissociation constant of the complex between target and ligand, obtained from inhibition or displacement.
